Data reported in ChEMBL document CHEMBL1156829 (Proc Natl Acad Sci U S A, 2008).

Key:
Plasmodium falciparum [1] = experiment: NOVARTIS: Inhibition of Plasmodium falciparum 3D7 (drug-susceptible) proliferation in erythrocyte-based infection assay; type: functional, organism-based; conditions: Plasmodium falciparum, 3D7
[2] = NOVARTIS: Cytotoxicity against human hepatocellular carcinoma cell line (Huh7); type: toxicity, cell-based, Huh-7; conditions: Huh7 cells (hepatocellular carcinoma cell line)
Plasmodium falciparum [3] = experiment: NOVARTIS: Inhibition of Plasmodium falciparum W2 (drug-resistant) proliferation in erythrocyte-based infection assay; type: functional, organism-based; conditions: Plasmodium falciparum, W2; read-out: EC50

## OC(CNC1CCCCC1)Cn1c2ccc(Br)cc2c2cc(Br)ccc21 (stereo unspecified)
Plasmodium falciparum [1]
  EC50: 451 nM
[2]
  CC50: 6060 nM
Plasmodium falciparum [3]
  EC50: 102 nM

## COc1cc2nc(N3CCN(c4nc(N)c5cc(OC)c(OC)cc5n4)CC3)nc(N)c2cc1OC
Plasmodium falciparum [1]
  EC50: 91.1 nM
[2]
  CC50: 14700 nM
Plasmodium falciparum [3]
  EC50: 257 nM

## Nc1ccc(-c2nc3cc(Oc4ccc5[nH]c(-c6ccc(N)cc6)nc5c4)ccc3[nH]2)cc1
Plasmodium falciparum [1]
  EC50: 683 nM
[2]
  CC50: 21400 nM
Plasmodium falciparum [3]
  EC50: 357 nM

## COCCN1C(=O)C(O)=C(C(=O)c2ccccc2)C1c1ccccc1[N+](=O)[O-] (stereo unspecified)
Plasmodium falciparum [1]
  EC50: > 12500 nM
[2]
  CC50: > 100000 nM
Plasmodium falciparum [3]
  EC50: 1710 nM

## N#Cc1c(-c2ccccc2)cc(N2CCN(Cc3ccc(Cl)cc3)CC2)n2c1nc1ccccc12
Plasmodium falciparum [1]
  EC50: 1120 nM
[2]
  CC50: > 100000 nM
Plasmodium falciparum [3]
  EC50: 1710 nM

## COc1ccc(C=CC(=O)Nc2ccc3nc(N4CCN(C)CC4)cc(C)c3c2)cc1OC
Plasmodium falciparum [1]
  EC50: 708 nM
[2]
  CC50: 55200 nM
Plasmodium falciparum [3]
  EC50: 946 nM

## Clc1ccc(NCn2nnc3ccccc32)nc1
Plasmodium falciparum [1]
  EC50: > 8200 nM
[2]
  CC50: > 100000 nM
Plasmodium falciparum [3]
  EC50: 1690 nM

## c1ccc(Cn2nnnc2CN2CCN(C(c3ccccc3)c3ccccc3)CC2)cc1
Plasmodium falciparum [1]
  EC50: 2870 nM
[2]
  CC50: > 100000 nM
Plasmodium falciparum [3]
  EC50: 1670 nM

## CCOC(=O)c1c(C)n(-c2ccccc2)c2ccc(OC(=O)C3CC3)cc12
Plasmodium falciparum [1]
  EC50: 749 nM
[2]
  CC50: > 100000 nM
Plasmodium falciparum [3]
  EC50: 1720 nM

## COCCNC(=O)C(c1ccc(C)cc1)N(Cc1ccccc1)C(=O)CCC(=O)Nc1nccs1 (stereo unspecified)
Plasmodium falciparum [1]
  EC50: > 4590 nM
[2]
  CC50: > 100000 nM
Plasmodium falciparum [3]
  EC50: 1720 nM

## CCN1CCN(CCCNC(=S)Nc2ccc3nc(N4CCCC4)cc(C)c3c2)CC1
Plasmodium falciparum [1]
  EC50: 256 nM
[2]
  CC50: 44200 nM
Plasmodium falciparum [3]
  EC50: 773 nM

## Cc1n(N)c2ccccc2[n+]1CC(=O)c1ccccc1
Plasmodium falciparum [1]
  EC50: 2900 nM
[2]
  CC50: > 100000 nM
Plasmodium falciparum [3]
  EC50: 1750 nM

## CN(CCCNc1ccnc2cc(Cl)ccc12)C(=O)CC(C)(C)C
Plasmodium falciparum [1]
  EC50: 236 nM
[2]
  CC50: > 10000 nM
Plasmodium falciparum [3]
  EC50: 173 nM

## COc1ccc(-c2c[n+](Cc3ccc(Cl)c(Cl)c3)c3n2CCC3)cc1
Plasmodium falciparum [1]
  EC50: 537 nM
[2]
  CC50: 49700 nM
Plasmodium falciparum [3]
  EC50: 858 nM

## Cc1ccccc1C[n+]1cc(-c2ccc(Cl)cc2)n2c1CCC2
Plasmodium falciparum [1]
  EC50: 1390 nM
[2]
  CC50: > 100000 nM
Plasmodium falciparum [3]
  EC50: 1720 nM

## Nc1c(C(=O)Nc2ccc(F)cc2)sc2nc3c(c(-c4cccs4)c12)CCCC3
Plasmodium falciparum [1]
  EC50: 1130 nM
[2]
  CC50: > 100000 nM
Plasmodium falciparum [3]
  EC50: 1710 nM

## CCC(C)N1CCN(Cc2cccc(OC)c2OC)CC1 (stereo unspecified)
Plasmodium falciparum [1]
  EC50: > 1250 nM
[2]
  CC50: > 10000 nM
Plasmodium falciparum [3]
  EC50: > 169 nM

## O=C(Cn1c(=O)oc2cc(S(=O)(=O)N3CCCC3)ccc21)Nc1cccnc1
Plasmodium falciparum [1]
  EC50: > 951 nM
[2]
  CC50: > 10000 nM
Plasmodium falciparum [3]
  EC50: 169 nM

## Cc1cc(NC(c2cccc(Br)c2)c2ccc3cccnc3c2O)no1 (stereo unspecified)
Plasmodium falciparum [1]
  EC50: 267 nM
[2]
  CC50: > 22800 nM
Plasmodium falciparum [3]
  EC50: 400 nM

## CCCCN1C(=O)/C(=C2/Sc3ccccc3N2C)SC1=Nc1cc(C)ccc1C
Plasmodium falciparum [1]
  EC50: > 581 nM
[2]
  CC50: > 10000 nM
Plasmodium falciparum [3]
  EC50: > 175 nM

## N=c1n(CCN2CCCCC2)c2ccccc2n1CC(O)c1ccc(Cl)c(Cl)c1 (stereo unspecified)
Plasmodium falciparum [1]
  EC50: 52.8 nM
[2]
  CC50: 12800 nM
Plasmodium falciparum [3]
  EC50: 224 nM

## C[n+]1cccc2ccc3cccnc3c21
Plasmodium falciparum [1]
  EC50: 66.4 nM
[2]
  CC50: > 8030 nM
Plasmodium falciparum [3]
  EC50: 140 nM

## COc1ccc(-c2n(CC(=O)OC3CC(C)CCC3C(C)C)c3ccccc3[n+]2C)cc1 (stereo unspecified)
Plasmodium falciparum [1]
  EC50: 391 nM
[2]
  CC50: 13400 nM
Plasmodium falciparum [3]
  EC50: 233 nM

## OC(Cn1nnc2ccccc21)Cn1c2ccc(Br)cc2c2cc(Br)ccc21 (stereo unspecified)
Plasmodium falciparum [1]
  EC50: 3370 nM
[2]
  CC50: > 78000 nM
Plasmodium falciparum [3]
  EC50: 1350 nM

## COc1cc(-c2nc(-c3cccc(Cl)c3)c(-c3ccccc3)[nH]2)cc(OC)c1O
Plasmodium falciparum [1]
  EC50: 583 nM
[2]
  CC50: 43200 nM
Plasmodium falciparum [3]
  EC50: 749 nM

## CC(C)CC(NC(=O)C(=Cc1ccco1)NC(=O)c1ccccc1)C(=O)OCc1ccccc1 (stereo unspecified)
Plasmodium falciparum [1]
  EC50: > 12500 nM
[2]
  CC50: > 100000 nM
Plasmodium falciparum [3]
  EC50: 1730 nM

## CCOC(=O)C(=CNc1ccccc1[N+](=O)[O-])C(=O)OCC
Plasmodium falciparum [1]
  EC50: 7990 nM
[2]
  CC50: > 100000 nM
Plasmodium falciparum [3]
  EC50: 1730 nM

## O=c1cccc2n1CC1CC2CN(Cc2cccc(O)c2)C1 (stereo unspecified)
Plasmodium falciparum [1]
  EC50: > 12500 nM
[2]
  CC50: > 100000 nM
Plasmodium falciparum [3]
  EC50: 1700 nM

## CC(C)(C)CC(C)(C)Nc1c(-c2ccccc2OC(=O)C(c2ccccc2)c2ccccc2)nc2ccccn12
Plasmodium falciparum [1]
  EC50: 882 nM
[2]
  CC50: 2150 nM
Plasmodium falciparum [3]
  EC50: 36.5 nM

## CCCC(C(=O)OCC)C(C)=NNc1ccccc1[N+](=O)[O-] (stereo unspecified)
Plasmodium falciparum [1]
  EC50: 1270 nM
[2]
  CC50: > 100000 nM
Plasmodium falciparum [3]
  EC50: 1670 nM

## C[n+]1ccccc1/C=C/C1=C(c2ccccc2)Oc2ccccc2O1
Plasmodium falciparum [1]
  EC50: 133 nM
[2]
  CC50: 14900 nM
Plasmodium falciparum [3]
  EC50: 249 nM

## COC(=O)NCCNC(=O)COC(c1cccs1)c1cccnc1Cl (stereo unspecified)
Plasmodium falciparum [1]
  EC50: 185 nM
[2]
  CC50: > 10000 nM
Plasmodium falciparum [3]
  EC50: 170 nM

## CCOC(=O)c1ccc2c(c1)[n+](CC)c(/C=C/N(C)c1ccccc1)n2CC
Plasmodium falciparum [1]
  EC50: 272 nM
[2]
  CC50: 34400 nM
Plasmodium falciparum [3]
  EC50: 588 nM

## Cc1ccc(NC(=O)N2CCN(C(=O)c3nc(-c4ccccc4)nc(C)c3C(=O)OC(C)C)CC2C)cc1 (stereo unspecified)
Plasmodium falciparum [1]
  EC50: 441 nM
[2]
  CC50: > 10000 nM
Plasmodium falciparum [3]
  EC50: 171 nM

## CC(=O)N(C1=C(N(C)C)C(=O)c2ccccc2C1=O)c1ccc(F)c(F)c1
Plasmodium falciparum [1]
  EC50: 16.1 nM
[2]
  CC50: 2360 nM
Plasmodium falciparum [3]
  EC50: 41.1 nM

## O=[N+]([O-])c1ccc(NCCNc2nc(N3CCCC3)nc3ccccc23)cc1
Plasmodium falciparum [1]
  EC50: 564 nM
[2]
  CC50: 19200 nM
Plasmodium falciparum [3]
  EC50: 334 nM

## CC12CN(Cc3ccccc3)CC(C)(CN(Cc3cccc(Br)c3)C1)C2
Plasmodium falciparum [1]
  EC50: 3620 nM
[2]
  CC50: 47200 nM
Plasmodium falciparum [3]
  EC50: 819 nM

## c1ccc(-c2c3c(cc4ccccc24)C[N+]2(CCCC2)C3)cc1
Plasmodium falciparum [1]
  EC50: 1340 nM
[2]
  CC50: > 100000 nM
Plasmodium falciparum [3]
  EC50: 1730 nM

## CCOC(=O)c1sc(-c2cnccc2C(F)(F)F)nc1C
Plasmodium falciparum [1]
  EC50: > 912 nM
[2]
  CC50: > 10000 nM
Plasmodium falciparum [3]
  EC50: 172 nM

## CCc1cccc(NC(=S)N2CCCC2c2ccccc2C(F)(F)F)c1 (stereo unspecified)
Plasmodium falciparum [1]
  EC50: 408 nM
[2]
  CC50: > 10000 nM
Plasmodium falciparum [3]
  EC50: 170 nM

## OCCC1CN(Cc2cccc(Cl)c2)CCN1Cc1ccccc1 (stereo unspecified)
Plasmodium falciparum [1]
  EC50: > 12500 nM
[2]
  CC50: > 100000 nM
Plasmodium falciparum [3]
  EC50: 1730 nM

## c1ccc(Oc2cccc(CN3CCc4nc(N5CCCCC5)sc4C3)c2)cc1
Plasmodium falciparum [1]
  EC50: 294 nM
[2]
  CC50: > 10000 nM
Plasmodium falciparum [3]
  EC50: 173 nM

## Cc1ncc(CCCCN(C)C)c2c1[nH]c1ccccc12
Plasmodium falciparum [1]
  EC50: 472 nM
[2]
  CC50: 18800 nM
Plasmodium falciparum [3]
  EC50: 325 nM

## Cc1ccc(NC2=C(c3ccc(C(F)(F)F)cc3)C(=O)c3ccccc32)cc1C
Plasmodium falciparum [1]
  EC50: 1240 nM
[2]
  CC50: > 100000 nM
Plasmodium falciparum [3]
  EC50: 1690 nM

## Cc1cc(N2CCN(C3CCCC3)CC2)n2c(nc3ccccc32)c1C#N
Plasmodium falciparum [1]
  EC50: 743 nM
[2]
  CC50: > 100000 nM
Plasmodium falciparum [3]
  EC50: 1670 nM

## COc1ccccc1N(CN1C(=O)c2ccc(Br)cc2C1=O)C(C)=O
Plasmodium falciparum [1]
  EC50: > 1250 nM
[2]
  CC50: > 10000 nM
Plasmodium falciparum [3]
  EC50: > 171 nM

## CCC[n+]1cccc2ccc3cccnc3c21
Plasmodium falciparum [1]
  EC50: 210 nM
[2]
  CC50: 44300 nM
Plasmodium falciparum [3]
  EC50: 756 nM

## O=C(Nc1cc(Cl)cc(Cl)c1)C1C2C=CC3(O2)C1C(=O)N(CCC1=CCCCC1)C3C(=O)NC1CCCCC1 (stereo unspecified)
Plasmodium falciparum [1]
  EC50: > 11000 nM
[2]
  CC50: > 100000 nM
Plasmodium falciparum [3]
  EC50: 1710 nM

## Cc1ccnc(NS(=O)(=O)c2ccc(NC(=O)C(C)C)cc2)n1
Plasmodium falciparum [1]
  EC50: > 6150 nM
[2]
  CC50: > 100000 nM
Plasmodium falciparum [3]
  EC50: 1690 nM

## c1ccc(Nc2nc(NCC3CCCO3)c3ccccc3n2)cc1 (stereo unspecified)
Plasmodium falciparum [1]
  EC50: 114 nM
[2]
  CC50: > 10000 nM
Plasmodium falciparum [3]
  EC50: 169 nM

## O=C(c1ccncc1)N1CCN(Cc2ccc3c(c2)OCO3)CC1
Plasmodium falciparum [1]
  EC50: 964 nM
[2]
  CC50: > 10000 nM
Plasmodium falciparum [3]
  EC50: 176 nM

## CCCCCCCc1cc(O)c2c3c(c(=O)oc2c1)CCC(C)C3 (stereo unspecified)
Plasmodium falciparum [1]
  EC50: 1210 nM
[2]
  CC50: > 100000 nM
Plasmodium falciparum [3]
  EC50: 1720 nM
